In patent US5665346A, “Human interleukin-8 analogs” (dated 1997):
Read-outs that look alike come from different tables or passages of the source.

How the values were obtained:
[1] = target: human neutrophils (receptor sites for IL-8 on neutrophils) (human); test: competition with 125I-IL-8 on human neutrophils
[2] = tested on: human neutrophils; assay type: cell-based, human neutrophils from donor blood buffy coats; conditions: read-out: IC50 (µM)
Protocol: Analog cytokines having residues 5-72; 6-72; and 7-72; respectively, were synthesized according to the method described herein. […] The assay was performed as previously described and elastase release is expressed in relative fluorescence units (1 unit=1 pMol 7-amino-4-methylcoumarine produced min). Mean values were determined from duplicate determinations form one out of three similar experiments performed with different neutrophil preparations.
(§1) The effect of amino acid replacement on the activity of interleukin-8 analogues was also explored, using compounds prepared by t-boc-based solid phase peptide synthesis.

[3] = tested on: human neutrophils; assay type: cell-based, human neutrophils from donor blood buffy coats
Protocol: For the biological assays referred to in the following examples, human neutrophils isolated from buffy coats of donor blood were placed in a final suspension of 10^8 cells/ml kept at 0.15mM MaCl, 0.05 mM CaCl2 at 10° C. until use. Competition binding studies were performed according to the following protocol. […] C. […] The supernatant is aspirated, and the bottom of the tubes containing the cell sediment is sliced off and counted in a MR 480 automated µ counter (kontron).
as §1

[4] = tested on: human neutrophils; assay type: cell-based, human neutrophils from donor blood buffy coats; conditions: read-out: Elastase ED50; n = 3
Source text: (§2) In a valuable aspect of the present invention, there are provided IL-8 analogs that are antagonists of IL-8 activity. Antagonists of IL-8 activity are characterized by the ability to reduce one or more of the measurable consequences of IL-8-mediated neutrophil stimulation. Biological assays are known which may be used to test for IL-8 activities or an ability to block or inhibit IL-8. The in vitro assays require human neutrophils which may be isolated from donor blood by known procedures such as that described by Peveri, et al (1988) J. Exp. Med. 167: 1547-1559. The assays include measurement of elastase release, cytosolic free calcium changes, and chemotaxis and may be performed according to methods described by Schroder, et al (1987) J. Immunol. 139: 3474-3483; and, Peveri, et al (1988) [supra].
(§3) For the biological assays referred to in the following examples, human neutrophils isolated from buffy coats of donor blood were placed in a final suspension of 10^8 cells/ml kept at 0.15mM MaCl, 0.05 mM CaCl2 at 10° C. until use. Competition binding studies were performed according to the following protocol. IL-8 was iodinated with Enzymobead reagent (Bio-Rad) as instructed by the supplier. Briefly, 1 nmol of IL-8 was mixed with 50 µl of rehydrated Enzymobead reagent, 50 µl of 0.2M potassium phosphate, pH 7.2, 2 mCl or Na^125 I, and […] of 2% D(+)-glucose and incubated for 30 min at 21° C. […] The ^125 I-IL-8 preparations were each analyzed for purity (SDS-polyacrylamide gel electrophoresis) and binding capacity (self-displacement analysis using freshly isolated human neutrophils) prior to use. Neutrophils ([…]) in 120 µl of RPMI 1640 medium containing 20 mM Hepes, pH 7.3, and 10 mg/ml BSA (binding medium) are incubated on ice (0°-4° C.) for 90 min with 1 nM ^125 I-IL-8 in the presence or absence of cold competitor (10^-11 to 10^-5). Cells are separated from unbound radioactivity by centrifugation for 1 min at 8000× g through 350 µl of phosphate-buffered saline (PBS) containing 60 mg/ml BSA (wash medium) in a Hettich Microliter centrifuge model 2020. The supernatant is aspirated, and the bottom of the tubes containing the cell sediment is sliced off and counted in a MR 480 automated µ counter (kontron). The Kd values were determined by calculating nonlinear least squares fits of the measured data, based on a single binding site model, and determining the Kd using a LIGAND program as described by Moser, et al (1991) J. Biol. Chem. 266: 10666-10671.
(§4) Cytokine analogs formed from the monomers described in Table 1 were compared for biological activity according to in vitro assays described herein. […] The binding dissociation constants (Kd values) were calculated from the competitive binding data shown in FIGS. 5 and 6 as described above.
(§5) Shown are determinations at the indicated concentrations of IL-8 1-72: .oval-solid., 1-72; .tangle-solidup., 3-72; .increment., 4-72; .diamond., 5-72; .box-solid., 6-72; .quadrature., 7-72; and .smallcircle., 77-residue IL-8. Unidirectional error bars indicate the standard deviations. Data are representative of three assays using different neutrophil preparations.
FIG. 3 is a graph showing neutrophil elastase release activity of COOH-terminal deletion IL-8 analogs. Shown are determinations at the indicated concentrations of IL-8 1-72: .oval-solid., 1-72; .smallcircle., 1-69; .tangle-solidup., 1-66; .increment., 1-63; .box-solid., 1-60; .quadrature., 1-58; .diamond., 1-54; and X, 1-51. Unidirectional error bars indicate the standard deviations. Data are representative of three assays using different neutrophil preparations.

[5] = tested on: human neutrophils; assay type: cell-based, human neutrophils from donor blood buffy coats; conditions: read-out: Chemotaxis ED50; n = 3
Source text: as §2, §3, §4
as §5, with “FIG. 2 is a graph showing neutrophil chemotaxis activity of NH2 -terminal deletion IL-8 analogs. The chemotaxis index (stimulated migration/control random migration) was determined” for “Shown are determinations”
FIG. 4 is a graph showing neutrophil chemotaxis activity of the COOH-terminal deletion IL-8 analogs. The chemotactic index (stimulated migrations/control random migration) was determined at the indicated concentrations of IL-8 1-72: .oval-solid., 1-72; .smallcircle., 1-69; .tangle-solidup., 1-66; .increment., 1-63; .box-solid., 1-60; .quadrature., 1-58; .diamond., 1-54; and X, 1-51. Unidirectional error bars indicate the standard deviations. Data are representative of three assays using different neutrophil preparations.

[6] = tested on: human neutrophils; assay type: cell-based, human neutrophils from donor blood buffy coats; conditions: read-out: Binding Kd
Protocol: For the biological assays referred to in the following examples, human neutrophils isolated from buffy coats of donor blood were placed in a final suspension of 10^8 cells/ml kept at 0.15mM MaCl, 0.05 mM CaCl2 at 10° C. until use. Competition binding studies were performed according to the following protocol. […] C. […] Cells are separated from unbound radioactivity by centrifugation for 1 min at 8000× g through 350 µl of phosphate-buffered saline (PBS) containing 60 mg/ml BSA (wash medium) in a Hettich Microliter centrifuge model 2020. The supernatant is aspirated, and the bottom of the tubes containing the cell sediment is sliced off and counted in a MR 480 automated µ counter (kontron). The Kd values were determined by calculating nonlinear least squares fits of the measured data, based on a single binding site model, and determining the Kd using a LIGAND program as described by Moser, et al (1991) J. Biol. Chem. 266: 10666-10671.
as §4

[7] = target: human neutrophils (receptor sites for IL-8 on neutrophils) (human); test: competition with 125I-IL-8 1-72 on human neutrophils, LIGAND fit

Kd [1]	EC50 [4]	EC50 [5]	Molecule	Kd [3]	other results
7.9 nM	–	–	IL-8, AAR (7-72) (ligand)	–	–
–	–	–	SEQ ID NO: 11, Gln-Arg-Cys-Gln-Cys... [IL-8, QR (7-72)]	34 nM	IC50 [2]: 2.1 µM
–	13 nM	0.32 nM	IL-8 residues 1-66	–	–
–	13 nM	0.36 nM	IL-8 (1-72), SEQ ID NO: 1, Ser-Ala-Lys-Glu-Leu-Arg-Cys-Gln-Cys... [reference compound]	–	–
–	1000 nM	0.48 nM	IL-8 (5-72), SEQ ID NO: 9, Leu-Arg-Cys-Gln-Cys...	0.8 nM	Kd [6]: 0.76 nM
1290 nM	–	–	IL-8, ELL (7-72) (ligand)	–	–
0.22 nM	–	–	IL-8 (4-72) (ligand)	–	Kd [7]: 0.22 nM
400 nM	–	–	IL-8, ELOrn (7-72) (ligand)	–	–
–	25 nM	0.69 nM	IL-8 with 5 additional NH2-terminal residues [77-residue IL-8]	–	Kd [6]: 0.35 nM
–	–	–	IL-8 (7-72), SEQ ID NO: 13, Cys-Gln-Cys...	> 10000 nM	–
–	–	–	SEQ ID NO: 5, Glu-Leu-Lys-Cys-Gln-Cys... [IL-8, ELK (7-72)]	220 nM	IC50 [2]: 1.8 µM
650 nM	–	–	IL-8, ELQ (7-72) (ligand)	–	–
–	–	–	SEQ ID NO: 4, Glu-Leu-Leu-Cys-Gln-Cys... [IL-8, ELL (7-72)]	1290 nM	IC50 [2]: 0.7 µM
–	220 nM	3.9 nM	IL-8 residues 1-60	–	–
34 nM	–	–	IL-8, QR (7-72) (ligand)	–	–
0.8 nM	–	–	IL-8 (5-72) (ligand)	–	Kd [7]: 0.76 nM
220 nM	–	–	IL-8, ELK (7-72) (ligand)	–	–
–	2.5 nM	0.21 nM	IL-8 residues 3-72	–	–

Kd [1]	EC50 [4]	EC50 [5]	Molecule	Kd [3]	other results
–	7.5 nM	0.14 nM	IL-8 residues 1-69	–	–
–	680 nM	7.1 nM	IL-8 residues 1-51	–	Kd [6]: 17 nM
–	–	–	SEQ ID NO: 10, Ile-Arg-Cys-Gln-Cys... [IL-8, IR (7-72)]	16 nM	IC50 [2]: 0.3 µM
–	680 nM	8.9 nM	IL-8 residues 1-58	–	–
–	150 nM	1.7 nM	IL-8 residues 1-63	–	–
–	–	–	IL-8 (6-72), SEQ ID NO: 12, Arg-Cys-Gln-Cys...	50 nM	IC50 [2]: 0.3 µM; Kd [6]: 31 nM
16 nM	–	–	IL-8, IR (7-72) (ligand)	–	–
–	–	–	SEQ ID NO: 7, Glu-Leu-Nle-Cys-Gln-Cys... (Nle = norleucine) [IL-8, ELNle (7-72)]	170 nM	IC50 [2]: 1 µM
–	4.5 nM	0.25 nM	IL-8 (4-72), SEQ ID NO: 2, Glu-Leu-Arg-Cys-Gln-Cys...	0.22 nM	Kd [6]: 0.22 nM
> 10000 nM	–	–	IL-8 (7-72) (ligand)	–	–
–	–	–	SEQ ID NO: 8, Ala-Ala-Arg-Cys-Gln-Cys... [IL-8, AAR (7-72)]	7.9 nM	IC50 [2]: 0.3 µM
170 nM	–	–	IL-8, ELNle (7-72) (ligand)	–	–
–	–	–	SEQ ID NO: 3, Glu-Leu-Gln-Cys-Gln-Cys... [IL-8, ELQ (7-72)]	650 nM	IC50 [2]: 1.1 µM
–	580 nM	6.7 nM	IL-8 residues 1-54	–	Kd [6]: 10 nM
50 nM	–	–	IL-8 (6-72) (ligand)	–	Kd [7]: 31 nM
–	–	–	77-residue IL-8 (ligand)	–	Kd [7]: 0.35 nM
–	–	–	IL-8 1-54 (ligand) SAKELRCQCIKTYSKPFHPKFIKELRVIESGPHCANTEIIVKLSDGRELCLDPK	–	Kd [7]: 10 nM
–	–	–	IL-8 1-51 (ligand) SAKELRCQCIKTYSKPFHPKFIKELRVIESGPHCANTEIIVKLSDGRELCL	–	Kd [7]: 17 nM
